One experiment has as its system HT-29. The experiment in a line: Cytotoxicity of compound was evaluated on the HT-29 cell line. Format: functional, cell-based. As to conditions: Homo sapiens.
Experiment [1] concerns L1210. Put plainly: Antiproliferative activity of compound was assessed using the murine L1210 leukemia cell line. The class given is functional, cell-based. The settings on record: Mus musculus.
For experiment [2], the system named is L1210. Put plainly: Percent perturbations evaluated at 10 uM induced on L1210 cells in the >G2+M (8N) phase of cell cycle. Format: functional, Mus musculus.
The test system of experiment [3] is L1210. The experiment in a line: Percent perturbations evaluated at 10 uM induced on L1210 cells in the G2+M phase of cell cycle. Format: functional, Mus musculus.
Experiment [4] relates to L1210. The experiment in a line: Percent perturbations evaluated at 10 uM induced on L1210 cells in the >G2+M (8N) phase of cell cycle; inactive. Format: functional, cell-based. The settings on record: Mus musculus.

This is an account of results in ChEMBL document CHEMBL1133049, “Expeditious synthesis and cytotoxic activity of new cyanoindolo[3,2-c]quinolines and benzimidazo[1,2-c]quinazolines” (Bioorg Med Chem Lett, 2000).

The source made the active and inactive calls. The calls are words filed in the database; no cut-off is given here.

As usually defined, the IC50 is the point on the concentration scale where inhibition reaches its midpoint. A higher IC50 goes with lower potency. In the case of `CN(C)CCn1c2ccccc2c2c(C#N)nc3ccccc3c21`, the IC50 with HT-29 stood at 0.68 µM; in the experiment with L1210 [1], 3.1 µM. Besides, the Perturbations in the experiment with L1210 [2] is on record as 21%; with L1210 [3], 50%.
In the case of `N#Cc1nc2ccccc2c2nc3ccccc3n12`, the Perturbations result with L1210 [4] was “inactive”. Moreover, the IC50 in the experiment on HT-29 came out at 5.2 µM; in the experiment on L1210 [1], 5.4 µM. Also, the Perturbations in the experiment with L1210 [3] was determined as 61%.
Take `Cn1c2ccccc2c2c(C#N)nc3ccccc3c21`: inhibition in the experiment on L1210 [1] was half-maximal at 58.8 µM (IC50).
On the same count and under the same terms, under `c1ccc2c(c1)ncn1c3ccccc3nc21` stands more than 100 µM; under `N#Cc1[nH]c2ccccc2c2nc3ccccc3c1-2`, more than 100 µM.
